What was measured:
[1] = Log P by HPLC on reversed phase columns (EEC directive 79/831 Annex V.A8), acidic range; format: physicochemical; conditions: for chromatographic logP: LC-UV, acidic range, 0.1% formic acid in water and acetonitrile (gradient 10% to 95% acetonitrile)
Protocol: Measurement of Log P values was performed according to EEC directive 79/831 Annex V.A8 by HPLC (High Performance Liquid Chromatography) on reversed phase columns with the following method: ^[a] Log P value is determined by measurement of LC-UV, in an acidic range, with 0.1% formic acid in water and acetonitrile as eluent (linear gradient from 10% acetonitrile to 95% acetonitrile).
(§1) Calibration was done with straight-chain alkan2-ones (with 3 to 16 carbon atoms) with known Log P values (measurement of Log P values using retention times with linear interpolation between successive alka-nones). Lambda-max-values were determined using UV-spectra from 200 nm to 400 nm and the peak values of the chromatographic signals.
as §1, with “alkanones).” for “alka-nones).”

Pyrenophora teres = assay: In vivo preventive test on Pyrenophora teres (net blotch on barley); conditions: barley plants; for Efficacy: comparison table
Protocol: (§2) The active ingredients are made soluble and homogenized in a mixture of Dimethyl sulfoxide/Acetone//Tween® 80 and then diluted in water to the desired concentration.
The young plants of barley are treated by spraying the active ingredient prepared as described above. Control plants are treated only with an aqueous solution of Acetone/Dimethyl sulfoxide/Tween® 80.
After 24 hours, the plants are contaminated by spraying the leaves with an aqueous suspension of Pyreoophora teres spores. The contaminated barley plants are incubated for 48 hours at 20° C. and at 100% relative humidity and then for 12 days at 20° C. and at 70-80% relative humidity.
The test is evaluated 14 days after the inoculation. 0% means an efficacy which corresponds to that of the control plants while an efficacy of 100% means that no disease is observed.

Septoria tritici = assay: In vivo preventive test on Septoria tritici (leaf spot on wheat), DMSO/acetone/Tween 80; conditions: wheat plants; for Efficacy: dose 10 ppm, comparison table; for protection (in words): dose of 10 ppm of active ingredient
Protocol: as §2
The young plants of wheat are treated by spraying the active ingredient prepared as described above. Control plants are treated only with an aqueous solution of Acetone/Dimethyl sulfoxide/Tween® 80.
After 24 hours, the plants are contaminated by spraying the leaves with an aqueous suspension of Septoria tritici spores. The contaminated wheat plants are incubated for 72 hours at 18° C. and at 100% relative humidity and then for 21 days at 20° C. and at 90% relative humidity.
The test is evaluated 24 days after the inoculation. 0% means an efficacy which corresponds to that of the control plants while an efficacy of 100% means that no disease is observed.

Sphaerotheca fuliginea = assay: In vivo preventive test on Sphaerotheca fuliginea (powdery mildew on cucurbits); conditions: gherkin plants; for Efficacy: dose 10 ppm, comparison table; for protection (in words): dose of 10 ppm of active ingredient
Protocol: as §2
(§3) The young plants of gherkin are treated by spraying the active ingredient prepared as described above. Control plants are treated only with an aqueous solution of Acetone/Dimethyl sulfoxide/Tween® 80.
After 24 hours, the plants are contaminated by spraying the leaves with an aqueous suspension of Sphaerotheca fuliginea spores. The contaminated gherkin plants are incubated for 72 hours at 18° C. and at 100% relative humidity and then for 12 days at 20° C. and at 70-80% relative humidity.
The test is evaluated 15 days after the inoculation. 0% means an efficacy which corresponds to that of the control plants while an efficacy of 100% means that no disease is observed.

Botrytis cinerea = assay: In vivo preventive test on Botrytis cinerea (grey mould); conditions: gherkin plants
Protocol: as §2, §3
After 24 hours, the plants are contaminated by spraying the leaves with an aqueous suspension of Botrytis cinerea spores. The contaminated gherkin plants are incubated for 4 to 5 days at 17° C. and at 90% relative humidity.
The test is evaluated 4 to 5 days after the inoculation. 0% means an efficacy which corresponds to that of the control plants while an efficacy of 100% means that no disease is observed.

[2] = dose of 10 ppm of active ingredient
[3] = dose of 100 ppm of active ingredient

In the case of CC(C)C1CC(C)(C)c2cccc(NC(=O)c3cccnc3C(F)F)c21 (racemic) [Example 1], the “Log P[a]” value [1] is reported as 3.87^[a].
In the case of CCCC1CC(C)(C)c2cccc(NC(=O)c3cccnc3C(F)F)c21 (racemic) [Example 5], the “Log P[a]” value [1] is reported as 3.96^[a].
For CCCC1CC(C)(C)c2cccc(NC(=O)c3ccc(Cl)nc3C(F)F)c21 (racemic) [Example 8], the “Log P[a]” value [1] was 4.65^[a].
In the case of CC(C)CC1CC(C)(C)c2cccc(NC(=O)c3cccnc3C(F)F)c21 (racemic) [Example 10], the “Log P[a]” value [1] is reported as 4.27^[a].
With CC(C)CC1CC(C)(C)c2cccc(NC(=O)c3c(F)ccnc3C(F)F)c21 (racemic) [Example 13] the “Log P[a]” value [1] was 4.54^[a].
In the case of CCC1CC(C)(C)c2cccc(NC(=O)c3c(F)ccnc3C(F)F)c21 (racemic) [Example 14], the “Log P[a]” value [1] is reported as 3.87^[a].
For CCCC1CC(C)(C)c2cccc(NC(=O)c3c(F)ccnc3C(F)F)c21 (racemic) [Example 15], the “Log P[a]” value [1] was 4.21^[a].
With CC(C)C1CC(C)(C)c2cccc(N)c21 (racemic) [Example III-01] the “Log P[a]” value [1] was 3.37^[a].
With CCCC1CC(C)(C)c2cccc(N)c21 (racemic) [Example III-03] the “Log P[a]” value [1] was 3.60^[a].
For CC(C)CC1CC(C)(C)c2cccc(N)c21 (racemic) [Example III-04], the “Log P[a]” value [1] was 4.18^[a].
In the case of CCC1CC(C)(C)c2cccc(NC(=O)c3cccnc3C(F)F)c21 (single isomer, unassigned) [Example 3], the “Log P[a]” value [1] is reported as 3.62^[a].
For CCC1CC(C)(C)c2cccc(NC(=O)c3cccnc3C(F)F)c21 (single isomer, unassigned) [Example 4], the “Log P[a]” value [1] was 3.62^[a].
For CCCC1CC(C)(C)c2cccc(NC(=O)c3cccnc3C(F)F)c21 (single isomer, unassigned) [Example 6], the “Log P[a]” value [1] was 3.96^[a].
With CCCC1CC(C)(C)c2cccc(NC(=O)c3cccnc3C(F)F)c21 (single isomer, unassigned) [Example 7] the “Log P[a]” value [1] was 3.96^[a].
For CC(C)CC1CC(C)(C)c2cccc(NC(=O)c3cccnc3C(F)F)c21 (single isomer, unassigned) [Example 11], the “Log P[a]” value [1] was 4.27^[a].
For CC(C)CC1CC(C)(C)c2cccc(NC(=O)c3cccnc3C(F)F)c21 (single isomer, unassigned) [Example 12], the “Log P[a]” value [1] was 4.27^[a].
In the case of CCC1CC(C)(C)c2cccc(NC(=O)c3cccnc3Cl)c21 (stereo not drawn) [2-chloro-N-(3-ethyl-1,1-dimethyl-2,3-dihydro-1H-inden-4-yl)nicotinamide, reference compound], the Efficacy (Pyrenophora teres; dose 10 ppm) is reported as 0%, the Efficacy (Pyrenophora teres; dose 100 ppm) is reported as 71% and the “protection (in words)” value (Pyrenophora teres; [2]) is reported as “no protection at all”. For the same molecule, the “protection (in words)” value (Pyrenophora teres; [3]) was “moderate protection”, the Efficacy (Septoria tritici) was 50% and the “protection (in words)” value (Septoria tritici) was “moderate protection”. The Efficacy (Sphaerotheca fuliginea) was 44% and the “protection (in words)” value (Sphaerotheca fuliginea) was “weak protection”.
In the case of CCC1CC(C)(C)c2cccc(NC(=O)c3cccnc3C(F)F)c21 (stereo not drawn) [Example 2, 2-(difluoromethyl)-N-(3-ethyl-1,1-dimethyl-2,3-dihydro-1H-inden-4-yl)nicotinamide], the chromatographic logP [1] is reported as 3.62, the Efficacy (Botrytis cinerea; dose 100 ppm, comparison table) is reported as 93% and the “protection (in words)” value (Botrytis cinerea; [3]) is reported as “very good protection”. For the same molecule, the Efficacy (Pyrenophora teres; dose 10 ppm) was 64%, the Efficacy (Pyrenophora teres; dose 100 ppm) was 93% and the “protection (in words)” value (Pyrenophora teres; [2]) was “moderate protection”. For the same molecule, the “protection (in words)” value (Pyrenophora teres; [3]) was “very good protection”, the Efficacy (Septoria tritici) was 97% and the “protection (in words)” value (Septoria tritici) was “very good protection”. For the same molecule, the Efficacy (Sphaerotheca fuliginea) was 100% and the “protection (in words)” value (Sphaerotheca fuliginea) was “total protection”.
Molecule CCC1CC(C)(C)c2cccc(N)c21 (stereo not drawn) [Example III-02, 3-ethyl-1,1-dimethylindan-4-amine] has a chromatographic logP [1] of 2.86.

— patent US10349656B2, “Difluoromethyl-nicotinic-indanyl carboxamides” (BAYER CROPSCIENCE AKTIENGESELLSCHAFT, priority 2014, dated 2019)
